Format in all cases: biochemical
The target in one test is T1, JAK1 (Homo sapiens, UniProt P23458).
T1 construct: 5 μl of catalytic domain recombinant Kinase enzyme+Tyr peptide substrate (Invitrogen, Calif.); purchased Invitrogen
As to the kind of experiment: Z'-LYTE kinase assay, JAK1 tyrosine phosphorylation activity. The conditions noted are these: read-out: JAK 1 IC50. In outline: (§1)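 FRET-based Z′-LYTE format with recombinant catalytic-domain kinases and Tyr6 peptide substrate; compounds in 1% DMSO final, duplicate wells. Kinase reaction with ATP runs 1 h at room temperature, then protease development 1 h; fluorescence read at ex 400, em 445/520 nm. IC50 from 4-parameter logistic fit of percent phosphorylation versus uninhibited.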

A further test has as its target T2, JAK2 (Homo sapiens, UniProt O60674).
T2 construct: 5 μl of catalytic domain recombinant Kinase enzyme+Tyr peptide substrate (Invitrogen, Calif.); purchased Invitrogen
As to the kind of experiment: Z'-LYTE kinase assay, JAK2 tyrosine phosphorylation activity. In outline: as §1

Another test has as its target T3, JAK3 (Homo sapiens, UniProt P52333).
T3 construct: 5 μl of catalytic domain recombinant Kinase enzyme+Tyr peptide substrate (Invitrogen, Calif.); purchased Invitrogen
As to the kind of experiment: Z'-LYTE kinase assay, JAK3 tyrosine phosphorylation activity. The method, boiled down:
as §1

A further test has as its target Syk (Homo sapiens, UniProt P43405). As to the kind of experiment: Syk IC50 (Table 1; method not given).

For 19 molecules, IC50 results are on record in patent US8853230B2, “Inhibitors of JAK” (Portola Pharmaceuticals, Inc., priority 2009, dated 2014).

As a reminder, the IC50 is the midpoint of a concentration-inhibition curve.

T1 sequence (P23458 875-1153 limits assumed): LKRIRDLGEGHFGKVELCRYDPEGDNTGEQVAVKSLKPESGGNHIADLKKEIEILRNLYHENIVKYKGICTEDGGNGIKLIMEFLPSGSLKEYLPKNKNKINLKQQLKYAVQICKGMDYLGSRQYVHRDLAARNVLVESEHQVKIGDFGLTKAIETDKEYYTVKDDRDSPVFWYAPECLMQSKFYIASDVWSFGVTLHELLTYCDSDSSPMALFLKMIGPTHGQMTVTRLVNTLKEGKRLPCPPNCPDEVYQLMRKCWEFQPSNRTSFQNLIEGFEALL
T3 sequence (P52333 822-1111 limits assumed): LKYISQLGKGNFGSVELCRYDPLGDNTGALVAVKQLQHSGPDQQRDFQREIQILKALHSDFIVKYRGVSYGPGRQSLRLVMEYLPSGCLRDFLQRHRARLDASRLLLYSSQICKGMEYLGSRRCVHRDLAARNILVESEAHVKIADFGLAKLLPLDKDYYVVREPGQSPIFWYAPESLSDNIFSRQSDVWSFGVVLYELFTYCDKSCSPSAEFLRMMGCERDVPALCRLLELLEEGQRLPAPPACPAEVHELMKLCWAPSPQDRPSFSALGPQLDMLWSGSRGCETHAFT
T2 sequence (O60674 849-1124 limits assumed): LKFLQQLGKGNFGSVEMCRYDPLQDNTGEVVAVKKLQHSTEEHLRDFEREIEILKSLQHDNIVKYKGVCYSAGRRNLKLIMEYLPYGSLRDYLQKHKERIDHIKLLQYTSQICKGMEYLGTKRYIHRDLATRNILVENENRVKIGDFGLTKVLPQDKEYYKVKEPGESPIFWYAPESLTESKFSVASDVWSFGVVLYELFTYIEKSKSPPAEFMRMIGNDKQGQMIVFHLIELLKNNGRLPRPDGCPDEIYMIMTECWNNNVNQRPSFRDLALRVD

As for `COCC(=O)Nc1cccc(Nc2ncc(C(N)=O)c(NCc3ccc(OC)cc3)n2)c1` [Example 44, 2-(3-(2-methoxyacetamido)phenylamino)-4-(4-methoxybenzylamino)pyrimidine-5-carboxamide], the IC50 at JAK1 is 100 to 1000 nM; on JAK2, 100 to 1000 nM; on JAK3, 10 to 100 nM; against Syk, more than 1000 nM.

For the molecule `COCC(=O)Nc1cccc(Nc2ncc(C(N)=O)c(NCc3ccc(Cl)cc3)n2)c1` [Example 45, 4-(4-chlorobenzylamino)-2-(3-(2-methoxyacetamido)phenylamino)pyrimidine-5-carboxamide], the IC50 is more than 1000 nM on JAK1, 100 to 1000 nM at JAK2, 100 to 1000 nM on JAK3 and more than 1000 nM on Syk.

As for `COCC(=O)Nc1cccc(Nc2ncc(C(N)=O)c(NCc3ccc(Cl)c(Cl)c3)n2)c1` [Example 46, 4-(3,4-dichlorobenzylamino)-2-(3-(2-methoxyacetamido)phenylamino)pyrimidine-5-carboxamide], the IC50 at JAK1 is more than 1000 nM; against JAK2 it was more than 1000 nM; at JAK3, 100 to 1000 nM; on Syk, more than 1000 nM.

Take `CC(=O)Nc1cccc(Nc2ncc(C(N)=O)c(NC[C@@H](O)c3ccccc3)n2)c1` [Example 48, (S)-2-(3-acetamidophenylamino)-4-(2-hydroxy-2-phenylethylamino)pyrimidine-5-carboxamide]: the IC50 at JAK1 was 100 to 1000 nM; against JAK2, 10 to 100 nM; against JAK3 it was 1 to 10 nM; against Syk it was more than 1000 nM.

Regarding `CC(=O)Nc1cccc(Nc2ncc(C(N)=O)c(NC[C@H](O)c3ccccc3)n2)c1` [Example 49, (R)-2-(3-acetamidophenylamino)-4-(2-hydroxy-2-phenylethylamino)pyrimidine-5-carboxamide], the IC50 on JAK1 was in the range of 100 to 1000 nM; against JAK2, 10 to 100 nM; on JAK3, 1 to 10 nM; at Syk, 100 to 1000 nM.

For the molecule `CC(=O)Nc1cccc(Nc2ncc(C(N)=O)c(NCC(N)=O)n2)c1` [Example 50, 2-(3-acetamidophenylamino)-4-(2-amino-2-oxoethylamino)pyrimidine-5-carboxamide], the IC50 on JAK1 was 100 to 1000 nM; at JAK2 it was 100 to 1000 nM; against JAK3, 100 to 1000 nM; on Syk it was more than 1000 nM.

On to `CC(=O)Nc1cccc(Nc2ncc(C(N)=O)c(NC3CC3c3ccccc3)n2)c1` (stereo not shown) [Example 51, 2-(3-acetamidophenylamino)-4-(2-phenylcyclopropylamino)pyrimidine-5-carboxamide], for which the IC50 on JAK1 is 100 to 1000 nM; against JAK2 it was 10 to 100 nM; at JAK3 it was 10 to 100 nM; on Syk, 100 to 1000 nM.

For the molecule `CC(=O)Nc1cccc(Nc2ncc(C(N)=O)c(N(C)Cc3ccccc3)n2)c1` [Example 54, 2-(3-acetamidophenylamino)-4-(benzyl(methyl)amino)pyrimidine-5-carboxamide], the IC50 at JAK1 was more than 1000 nM; against JAK2, 100 to 1000 nM; at JAK3 it was 100 to 1000 nM; on Syk, more than 1000 nM.

On to `COCC(=O)Nc1cccc(Nc2ncc(C(N)=O)c(NC3CCC3)n2)c1` [Example 55, 4-(cyclobutylamino)-2-(3-(2-methoxyacetamido)phenylamino)pyrimidine-5-carboxamide], for which the half-inhibitory concentration (IC50) lay within 10 to 100 nM on JAK1, 10 to 100 nM against JAK2, 1 to 10 nM against JAK3 and 100 to 1000 nM on Syk.

For the molecule `CC(=O)Nc1cccc(Nc2ncc(C(N)=O)c(NCCc3ccccc3)n2)c1` [Example 56, 2-(3-acetamidophenylamino)-4-(phenethylamino)pyrimidine-5-carboxamide], the IC50 at JAK1 lay in the range of 100 to 1000 nM; against JAK2, 10 to 100 nM; against JAK3, 10 to 100 nM; at Syk, 100 to 1000 nM.

Regarding `COCC(=O)Nc1cccc(Nc2ncc(C(N)=O)c(NCc3c(F)ccc(F)c3F)n2)c1` [Example 58, 2-(3-(2-methoxyacetamido)phenylamino)-4-(2,3,6-trifluorobenzylamino)pyrimidine-5-carboxamide], the IC50 fell in the range of 10 to 100 nM on JAK1, 1 to 10 nM at JAK2, 1 to 10 nM at JAK3 and 100 to 1000 nM at Syk.

Regarding `CC(=O)Nc1cccc(Nc2ncc(C(N)=O)c(NCc3c(F)ccc(F)c3F)n2)c1` [Example 59, 2-(3-acetamidophenylamino)-4-(2,3,6-trifluorobenzylamino)pyrimidine-5-carboxamide], the IC50 on JAK1 fell in the range of 10 to 100 nM; against JAK2, 10 to 100 nM; at JAK3 it was 1 to 10 nM; against Syk, 100 to 1000 nM.

For the molecule `CC(=O)Nc1cccc(Nc2ncc(C(N)=O)c(NCCC(N)=O)n2)c1` [Example 61, 2-(3-acetamidophenylamino)-4-(3-amino-3-oxopropylamino)pyrimidine-5-carboxamide], the half-maximal inhibitory concentration (IC50) was 10 to 100 nM at JAK1, 100 to 1000 nM against JAK2, 10 to 100 nM against JAK3 and more than 1000 nM against Syk.

In the case of `CC(=O)Nc1cccc(Nc2ncc(C(N)=O)c(N[C@@H](CO)CC(C)C)n2)c1` [Example 62, (R)-2-(3-acetamidophenylamino)-4-(1-hydroxy-4-methylpentan-2-ylamino)pyrimidine-5-carboxamide], the IC50 on JAK1 is 10 to 100 nM; on JAK2, 100 to 1000 nM; at JAK3, 10 to 100 nM; on Syk it was more than 1000 nM.

As to `CC(=O)Nc1cccc(Nc2ncc(C(N)=O)c(NCCN3CCCC3)n2)c1` [Example 63, 2-(3-acetamidophenylamino)-4-(2-(pyrrolidin-1-yl)ethylamino)pyrimidine-5-carboxamide], the IC50 at JAK1 is more than 1000 nM; on JAK2 it was more than 1000 nM; at JAK3, 100 to 1000 nM; on Syk, more than 1000 nM.

With `CC(=O)Nc1cccc(Nc2ncc(C(N)=O)c(N[C@@H](C)c3ccccc3)n2)c1` [Example 64, (S)-2-(3-acetamidophenylamino)-4-(1-phenylethylamino)pyrimidine-5-carboxamide], the IC50 was 100 to 1000 nM at JAK1, 100 to 1000 nM at JAK2, 10 to 100 nM against JAK3 and more than 1000 nM against Syk.

In the case of `CC(=O)Nc1cccc(Nc2ncc(C(N)=O)c(NCc3ccc(C)cc3)n2)c1` [Example 67, 2-(3-acetamidophenylamino)-4-(4-methylbenzylamino)pyrimidine-5-carboxamide], the IC50 was 100 to 1000 nM on JAK1, 100 to 1000 nM on JAK2, 10 to 100 nM against JAK3 and more than 1000 nM on Syk.

On to `COc1ccc(CNc2nc(Nc3cccc(NC(C)=O)c3)ncc2C(N)=O)cc1` [Example 68, 2-(3-acetamidophenylamino)-4-(4-methoxybenzylamino)pyrimidine-5-carboxamide], for which the IC50 was 100 to 1000 nM at JAK1, 100 to 1000 nM against JAK2, 10 to 100 nM against JAK3 and more than 1000 nM on Syk.

On to `CC(=O)Nc1cccc(Nc2ncc(C(N)=O)c(NCc3ccc(Cl)cc3)n2)c1` [Example 69, 2-(3-acetamidophenylamino)-4-(4-chlorobenzylamino)pyrimidine-5-carboxamide], for which the IC50 is 100 to 1000 nM at JAK1, 100 to 1000 nM against JAK2, 10 to 100 nM on JAK3 and more than 1000 nM at Syk.
